# Experimental data reported in publication PMC2587100 (Biochemistry, 2008).
# What was measured:
# Type in all cases: biochemical
# [1] = biological target: T1, alkaline phosphatase (AP) (Escherichia coli, UniProt P00634, R188S); assay: […]-based hydrolysis assay, kcat/KM
# [2] = biological target: T2, alkaline phosphatase (AP) (Escherichia coli, UniProt P00634, R188K); assay: […]-based hydrolysis assay, kcat/KM
# [3] = biological target: T2, alkaline phosphatase (AP); assay: continuous absorbance assay of hydrolysis, kcat/KM
# [4] = biological target: T1, alkaline phosphatase (AP); assay: continuous absorbance assay of hydrolysis, kcat/KM
# [5] = biological target: T1, alkaline phosphatase (AP); assay: steady-state hydrolysis by purified enzyme, kcat/KM
# [6] = biological target: T2, alkaline phosphatase (AP); assay: as above
# [7] = biological target: alkaline phosphatase (AP) (Escherichia coli, UniProt P00634); assay: as above
# Chain of alkaline phosphatase (AP) (Escherichia coli, UniProt P00634) (P00634 22-471): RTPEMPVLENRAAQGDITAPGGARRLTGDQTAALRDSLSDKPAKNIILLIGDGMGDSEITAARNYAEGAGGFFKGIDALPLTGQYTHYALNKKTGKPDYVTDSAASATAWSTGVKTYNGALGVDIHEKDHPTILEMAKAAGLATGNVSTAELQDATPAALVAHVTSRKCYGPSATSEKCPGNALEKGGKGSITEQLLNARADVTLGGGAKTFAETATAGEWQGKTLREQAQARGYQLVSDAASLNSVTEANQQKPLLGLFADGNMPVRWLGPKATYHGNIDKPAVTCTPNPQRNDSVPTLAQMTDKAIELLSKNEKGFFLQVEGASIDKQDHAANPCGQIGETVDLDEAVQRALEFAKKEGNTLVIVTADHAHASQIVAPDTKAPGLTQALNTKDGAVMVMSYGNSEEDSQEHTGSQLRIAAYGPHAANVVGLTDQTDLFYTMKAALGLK
# T1 sequence (P00634 23-471 R188S): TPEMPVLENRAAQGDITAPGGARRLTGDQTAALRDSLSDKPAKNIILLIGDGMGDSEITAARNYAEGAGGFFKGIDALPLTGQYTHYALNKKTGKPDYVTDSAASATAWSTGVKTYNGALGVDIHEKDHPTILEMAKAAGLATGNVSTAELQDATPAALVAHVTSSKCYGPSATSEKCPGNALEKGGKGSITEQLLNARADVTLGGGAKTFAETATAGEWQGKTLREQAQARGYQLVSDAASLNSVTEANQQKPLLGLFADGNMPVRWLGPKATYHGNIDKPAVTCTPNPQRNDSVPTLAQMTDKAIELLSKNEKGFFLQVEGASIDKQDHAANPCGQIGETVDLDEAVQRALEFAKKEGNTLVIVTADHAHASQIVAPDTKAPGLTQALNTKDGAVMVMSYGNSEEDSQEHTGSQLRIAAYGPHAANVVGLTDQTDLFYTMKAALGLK
# T2 sequence (P00634 23-471 R188K): as the sequence (P00634 23-471 R188S) above, with S166K counted along it
smiles,measurement,setting,value
"CCOP(=O)(O)O [EtOP, ethyl phosphate]",EtOP / kcat/KM,[1],24 M⁻¹ s⁻¹
same,EtOP / kcat/KM,[2],20 M⁻¹ s⁻¹
"O=[N+]([O-])c1ccc(OP(=O)(O)O)cc1 [pNPP, p-Nitrophenyl phosphate]",pNPP / kcat/KM (M^-1s^-1),[3],1.9 × 10^5 M^−1s^−1
same,pNPP / kcat/KM (M^-1s^-1),[4],1.0 × 10^5 M^−1s^−1
"O=[N+]([O-])c1ccc(OP(O)(O)=S)cc1 [pNPPS, p-Nitrophenyl O-phosphorothioate]",kcat/KM (M^-1s^-1) / pNPPS,[5],2.6 × 10^3 M^−1s^−1
same,kcat/KM (M^-1s^-1) / pNPPS,[6],1.6 × 10^4 M^−1s^−1
same,kcat/KM (M^-1s^-1) / pNPPS,[7],5.5 × 10^3 M^−1s^−1
